Results on 40 compounds are retold here after US20230150981A1, “N-HETEROARYLALKYL-2-(HETEROCYCLYL AND HETEROCYCLYLMETHYL) ACETAMIDE DERIVATIVES AS SSTR4 AGONISTS” (Takeda Pharmaceutical Compnay Limited, priority 2020, published 2023).

The test deals with T1, SSTR4 (Homo sapiens, UniProt P31391).
T1 construct: host or cells: CHO-K1
T1 sequence (P31391 whole entry): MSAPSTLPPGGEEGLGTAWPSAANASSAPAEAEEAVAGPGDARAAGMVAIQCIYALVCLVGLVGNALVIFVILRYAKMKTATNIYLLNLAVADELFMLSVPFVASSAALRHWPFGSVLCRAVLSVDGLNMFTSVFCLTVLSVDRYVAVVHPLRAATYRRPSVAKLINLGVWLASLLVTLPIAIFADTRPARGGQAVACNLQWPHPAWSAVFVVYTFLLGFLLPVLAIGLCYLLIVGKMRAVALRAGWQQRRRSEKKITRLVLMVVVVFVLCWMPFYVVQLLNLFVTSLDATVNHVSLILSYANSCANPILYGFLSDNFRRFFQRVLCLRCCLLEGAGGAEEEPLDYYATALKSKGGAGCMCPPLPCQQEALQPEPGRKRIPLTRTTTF
Nature of the test: Inhibition of forskolin stimulated cAMP in CHO-K1 cells overexpressing SSTR4. Type of test: cell-based. As to conditions: read-out: SSTR4 Activity pEC50 (converted). The protocol:
Inhibition of Forskolin Stimulated cAMP in Cells Overexpressing SSTR4
This cell-based assay measures the ability of compounds to inhibit forskolin stimulated cAMP in CHO-K1 cells overexpressing SSTR4. CHO-K1 cells overexpressing SSTR4 (CHO-SSTR4) are purchased from DiscoveRx (product code 95-0059C2). The CHO-SSTR4 cells are maintained in F12K media with 10% Fetal Bovine Serum (Hyclone), 1% Pen/Strep (Life Technologies), and 800 μg/mL G418 (Life Technologies). To perform the assay, 3000 cells are plated per well in white 384-well plate (Corning 3570) in 50 μL complete media and the cells are allowed to attach for 16 hours in a 37° C., 5% CO2 incubator. The next day, the culture media is removed from the cells and the cells are washed (added then removed) with Krebs Ringer Buffer (ZenBio, KRB-1000 mL). Test compounds are suspended in DMSO and diluted in stimulation buffer: Krebs Ringer Buffer plus 0.5% BSA (Roche), 300 μM IBMX (Sigma), and 350 nM forskolin (Sigma). The cells are incubated in 10 μL compound/stimulation buffer for 30 minutes at room temperature. Cellular cAMP levels are detected with a HTRF LANCE Ultra cAMP kit (Perkin Elmer, catalog number TRF0264).
The assay is performed in accordance with the manufacturer's instructions. Five μL of diluted Eu-W8044 labeled streptavidin (dilution: 1:50 in cAMP Detection Buffer) is added to each well. Then 5 μL of diluted biotin cAMP (dilution: 1:150 in cAMP Detection Buffer) is added to each well. The plates are covered and allowed to incubate for 60 minutes at room temperature on a shaker. HTRF (665 nm/615 nm) is read on a Perkin Elmer ENVISION plate reader. The pEC50 values are generated using Activity Base for Screening Data Management.
For `CN1CCC[C@@H]1CC(=O)NC(C)(C)COc1ncccc1C1CC1` [Example 108, (R)-N-(1-((3-cyclopropylpyridin-2-yl)oxy)-2-methylpropan-2-yl)-2-(1-methylpyrrolidin-2-yl)acetamide], the EC50 was 20 nM. In the case of `COc1ccccc1C(C)(C)NC(=O)[C@@H](C)CN1CCCC1` (single isomer, unassigned) [Example 76] it was 631 nM. In the case of `CC(C)(COc1ncccc1C(F)(F)F)NC(=O)C[C@H]1CCCN1CCF` [Example 58, (R)-2-(1-(2-fluoroethyl)pyrrolidin-2-yl)-N-(2-methyl-1-((3-(trifluoromethyl)pyridin-2-yl)oxy)propan-2-yl)acetamide] it was 39.8 nM; in that of `Cc1cccc(C(C)(C)NC(=O)C[C@@H]2CCCN2C)c1F` [Example 86, (S)-N-(2-(2-fluoro-3-methylphenyl)propan-2-yl)-2-(1-methylpyrrolidin-2-yl)acetamide], 251 nM; in that of `CN1CCC[C@H]1CC(=O)NC(C)(C)[C@H]1CCc2ccccc2O1` (single isomer, unassigned) [Example 129], 398 nM. As for `Cc1ccc(OCC(C)(C)NC(=O)C[C@@H]2CCCN2C)nc1` [Example 103, (S)-N-(2-methyl-1-((5-methylpyridin-2-yl)oxy)propan-2-yl)-2-(1-methylpyrrolidin-2-yl)acetamide], the EC50 is 501 nM. Next, `CCN1CCCC1CC(=O)NC1(COc2ncccc2C)CCC1` (stereo not shown) [Example 64, 2-(1-ethylpyrrolidin-2-yl)-N-(1-(((3-methylpyridin-2-yl)oxy)methyl)cyclobutyl)acetamide]: 100 nM; `Cc1cnc(OCC(C)(C)NC(=O)C[C@@H]2CCCN2C)c(Cl)c1` [Example 124, (S)-N-(1-((3-chloro-5-methylpyridin-2-yl)oxy)-2-methylpropan-2-yl)-2-(1-methylpyrrolidin-2-yl)acetamide]: 39.8 nM.

On to `CN1CCC[C@@H]1CC(=O)NC(C)(C)[C@H]1CCc2ccccc2O1` (single isomer, unassigned) [Example 130], for which the EC50 was 316 nM. `CN1CCC(F)(F)C1CC(=O)NC(C)(C)c1nccc2occc12` (stereo not shown) [Example 99, 2-(3,3-difluoro-1-methylpyrrolidin-2-yl)-N-(2-(furo[3,2-c]pyridin-4-yl)propan-2-yl)acetamide]: the EC50 is 3980 nM. For `COc1c(Cl)cccc1C(C)(C)NC(=O)C[C@H]1CCCN1C` [Example 113, (R)-N-(2-(3-chloro-2-methoxyphenyl)propan-2-yl)-2-(1-methylpyrrolidin-2-yl)acetamide], the EC50 was 79.4 nM. In the case of `COc1ccccc1CC1(NC(=O)CC2CCCCN2C)CC1` (stereo not shown) [Example 74, N-(1-(2-methoxybenzyl)cyclopropyl)-2-(1-methylpiperidin-2-yl)acetamide] it was 31.6 nM. In the case of `Cc1cccc(C(C)(C)NC(=O)[C@H](C)CN2CCC2)c1Cl` (single isomer, unassigned) [Example 144], the EC50 is 100 nM. In the case of `CN1CCC[C@@H]1CC(=O)NC(C)(C)COc1ncccc1C(F)F` [Example 84, (R)-N-(1-((3-(difluoromethyl)pyridin-2-yl)oxy)-2-methylpropan-2-yl)-2-(1-methylpyrrolidin-2-yl)acetamide] it was 100 nM. Next, `CC[C@H](CN1CCC1)C(=O)NC(C)(C)c1ccc(C)cc1` (single isomer, unassigned) [Example 186]: 200 nM; `CN1CCC[C@H]1CC(=O)NC(C)(C)COc1nccc2ccoc12` [Example 122, (S)-N-(1-(furo[2,3-c]pyridin-7-yloxy)-2-methylpropan-2-yl)-2-(1-methylpyrrolidin-2-yl)acetamide]: 316 nM; `CCOc1cccnc1OCC(C)(C)NC(=O)C[C@H]1CCCN1C` [Example 107, (R)-N-(1-((3-ethoxypyridin-2-yl)oxy)-2-methylpropan-2-yl)-2-(1-methylpyrrolidin-2-yl)acetamide]: 200 nM. In the case of `C[C@H](CN1CCC1)C(=O)NC(C)(C)c1cccc(F)c1` (single isomer, unassigned) [Example 152] it was 1000 nM; in that of `COc1c(C)cccc1C(C)(C)NC(=O)C[C@@H]1CCCN1C` [Example 116, (S)-N-(2-(2-methoxy-3-methylphenyl)propan-2-yl)-2-(1-methylpyrrolidin-2-yl)acetamide], 79.4 nM; in that of `Cc1c(F)cccc1C(C)(C)NC(=O)C[C@@H]1CCCN1C` [Example 89, (S)-N-(2-(3-fluoro-2-methylphenyl)propan-2-yl)-2-(1-methylpyrrolidin-2-yl)acetamide], 126 nM.

Take `Cc1ccc([C@@H](CF)NC(=O)CCN2CCC2)cc1` (single isomer, unassigned) [Example 174]: the EC50 was greater than 10000 nM.

Regarding `Cc1cccnc1OCC1(NC(=O)[C@H](C)[C@H]2CCCN2C)CC1` (single isomer, unassigned) [Example 177], the EC50 was greater than 10000 nM. In the case of `CC(C)(COc1ncccc1C(F)(F)F)NC(=O)C[C@H]1CCCN1C1CC1` [Example 59, (R)-2-(1-cyclopropylpyrrolidin-2-yl)-N-(2-methyl-1-((3-(trifluoromethyl)pyridin-2-yl)oxy)propan-2-yl)acetamide] it was 15.8 nM; in that of `C[C@@H](CN1CCCC1)C(=O)NC(C)(C)c1ccccc1Cl` (single isomer, unassigned) [Example 137], 316 nM; in that of `CN1CCC[C@H]1CC(=O)NC(C)(C)c1cccc(F)c1Cl` [Example 93, (S)-N-(2-(2-chloro-3-fluorophenyl)propan-2-yl)-2-(1-methylpyrrolidin-2-yl)acetamide], 63.1 nM. Next, `CN1CCC[C@H]1CC(=O)NC(C)(C)COc1ncccc1C1CC1` [Example 73, (S)-N-(1-((3-cyclopropylpyridin-2-yl)oxy)-2-methylpropan-2-yl)-2-(1-methylpyrrolidin-2-yl)acetamide]: 39.8 nM. In the case of `CN1CCC[C@H]1CC(=O)NC(C)(C)COc1ncccc1C(F)F` [Example 85], the EC50 is 200 nM. As for `Cc1cccc(C(C)(C)NC(=O)C[C@H]2CCCN2C)c1F` [Example 87, (R)-N-(2-(2-fluoro-3-methylphenyl)propan-2-yl)-2-(1-methylpyrrolidin-2-yl)acetamide], the EC50 is 316 nM. Turning to `Cc1cccnc1OCC1(NC(=O)C[C@@H]2CCCN2C)CCCC1` [Example 56, (S)-N-(1-(((3-methylpyridin-2-yl)oxy)methyl)cyclopentyl)-2-(1-methylpyrrolidin-2-yl)acetamide], the EC50 is 200 nM. For the compound `CN1CCC[C@H]1CC(=O)NC(C)(C)COc1cc(Cl)c(F)cn1` [Example 105, (S)-N-(1-((4-chloro-5-fluoropyridin-2-yl)oxy)-2-methylpropan-2-yl)-2-(1-methylpyrrolidin-2-yl)acetamide], the EC50 was 794 nM. Next, `CN1CCC[C@H]1CC(=O)NC(C)(C)c1cccc(F)c1F` [Example 82, (S)-N-(2-(2,3-difluorophenyl)propan-2-yl)-2-(1-methylpyrrolidin-2-yl)acetamide]: 316 nM; `C[C@H](NC(=O)CC1CCCCN1C)c1ccc(F)cc1` (stereo partly drawn) [Example 61, N-((S)-1-(4-fluorophenyl)ethyl)-2-(1-methylpiperidin-2-yl)acetamide]: 158 nM. In the case of `COc1c(F)cccc1C(C)(C)NC(=O)[C@@H](C)CN1CCC1` (single isomer, unassigned) [Example 172] it was 251 nM; in that of `CC[C@@H](CN1CCC1)C(=O)NC(C)(C)c1cccc(F)c1` (single isomer, unassigned) [Example 185], 79.4 nM; in that of `COc1ccc(C(C)(C)NC(=O)[C@@H](C)CN2CCC2)cc1` (single isomer, unassigned) [Example 139], 1260 nM.

For `Cc1cccnc1OCC(C)(C)NC(=O)CC1CCCCN1C` (stereo not shown) [Example 69, N-(2-methyl-1-((3-methylpyridin-2-yl)oxy)propan-2-yl)-2-(1-methylpiperidin-2-yl)acetamide], the EC50 is 25.1 nM.

`CC(C)(COc1ncccc1C(F)(F)F)NC(=O)C[C@@H]1CCCN1CCF` [Example 52, (S)-2-(1-(2-fluoroethyl)pyrrolidin-2-yl)-N-(2-methyl-1-((3-(trifluoromethyl)pyridin-2-yl)oxy)propan-2-yl)acetamide]: the EC50 was 501 nM. Next, `C[C@H](NC(=O)C[C@H]1CCCN1C)c1ccc(Cl)cc1` [Example 36, N-((S)-1-(4-chlorophenyl)ethyl)-2-((R)-1-methylpyrrolidin-2-yl)acetamide]: 501 nM; `Cc1ccc(C(NC(=O)C[C@@H]2CCCN2C)C(F)(F)F)cc1` (stereo partly drawn) [Example 158, 2-((S)-1-methylpyrrolidin-2-yl)-N-(2,2,2-trifluoro-1-(p-tolyl)ethyl)acetamide]: 398 nM. In the case of `Cc1ccc(C(C)(C)NC(=O)[C@H](C)CN2CCC2)cc1` (single isomer, unassigned) [Example 148] it was 501 nM.
